Experiments:
Assay in all cases: relative viability (nuclei count vs DMSO), 5 days (fraction); higher = more cells survive
NCI-H460 = tested on: NCI-H460
Procedure, shortened: (§1)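 A single step with final 0.05% Triton X-100, 1% formaldehyde and 1 ug/ml Hoechst fixed the cells and stained nuclei 5 days after treatment. Lung cancer cell lines in 1536-well plates had been treated by pin tool the day after seeding with one drug alone or a fixed anchor-drug dose plus five library-drug doses (not always all listed) in √10 steps, and nuclei were counted on 4× images. Relative viability is the ratio of nuclei in treated wells to nuclei in vehicle wells, taken as the median of duplicate plates.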

NCI-H2342 = tested on: NCI-H2342
Procedure, shortened: as §1

EPLC-272H = tested on: EPLC-272H
Procedure, shortened: as §1

NCI-H2228 = tested on: NCI-H2228
Procedure, shortened: as §1

NCI-H322M = tested on: NCI-H322M
Procedure, shortened: as §1

COR-L 105 = tested on: COR-L 105
Procedure, shortened: as §1

NCI-H2087 = tested on: NCI-H2087
Procedure, shortened: as §1

ChaGo-K-1 = tested on: ChaGo-K-1
Procedure, shortened: as §1

NCI-H2009 = tested on: NCI-H2009
Procedure, shortened: as §1

NCI-H1993 = tested on: NCI-H1993
Procedure, shortened: as §1

SK-MES-1 = tested on: SK-MES-1
Procedure, shortened: as §1

NCI-H441 = tested on: NCI-H441
Procedure, shortened: as §1

NCI-H1975 = tested on: NCI-H1975
Procedure, shortened: as §1

NCI-H1792 = tested on: NCI-H1792
Procedure, shortened: as §1

H3255 = tested on: H3255
Procedure, shortened: as §1

NCI-H2085 = tested on: NCI-H2085
Procedure, shortened: as §1

CAL-12T = tested on: CAL-12T
Procedure, shortened: as §1

HCC-366 = tested on: HCC-366
Procedure, shortened: as §1

EKVX = tested on: EKVX
Procedure, shortened: as §1

NCI-H1355 = tested on: NCI-H1355
Procedure, shortened: as §1

HCC-827 = tested on: HCC-827
Procedure, shortened: as §1

Structure (SMILES): Cc1cn(-c2cc(NC(=O)c3ccc(C)c(Nc4nccc(-c5cccnc5)n4)c3)cc(C(F)(F)F)c2)cn1 [Nilotinib] + CC(=O)Nc1cccc(-n2c(=O)n(C3CC3)c(=O)c3c(Nc4ccc(I)cc4F)n(C)c(=O)c(C)c32)c1 [Trametinib] (partner 0.02 µM)
- relative viability (NCI-H460; first compound 0.003162 µM): 0.127
- relative viability (NCI-H460; first compound 0.01 µM): 0.0752
- relative viability (NCI-H460; first compound 0.03162 µM): 0.108
- relative viability (NCI-H460; first compound 0.1 µM): 0.0424
- relative viability (NCI-H2342; first compound 0.001 µM): 0.786
- relative viability (NCI-H2342; first compound 0.003162 µM): 0.76
- relative viability (NCI-H2342; first compound 0.01 µM): 0.798
- relative viability (NCI-H2342; first compound 0.03162 µM): 0.711
- relative viability (NCI-H2342; first compound 0.1 µM): 0.842
- relative viability (EPLC-272H; first compound 0.001 µM): 0.289
- relative viability (EPLC-272H; first compound 0.003162 µM): 0.233
- relative viability (EPLC-272H; first compound 0.01 µM): 0.34
- relative viability (EPLC-272H; first compound 0.03162 µM): 0.273
- relative viability (EPLC-272H; first compound 0.1 µM): 0.225
- relative viability (NCI-H2228; first compound 0.001 µM): 0.437
- relative viability (NCI-H2228; first compound 0.003162 µM): 0.552
- relative viability (NCI-H2228; first compound 0.01 µM): 0.576
- relative viability (NCI-H2228; first compound 0.03162 µM): 0.255
- relative viability (NCI-H2228; first compound 0.1 µM): 0.295
- relative viability (NCI-H322M; first compound 0.001 µM): 0.538
- relative viability (NCI-H322M; first compound 0.003162 µM): 0.524
- relative viability (NCI-H322M; first compound 0.01 µM): 0.476
- relative viability (NCI-H322M; first compound 0.03162 µM): 0.613
- relative viability (NCI-H322M; first compound 0.1 µM): 0.465
- relative viability (COR-L 105; first compound 0.001 µM): 0.439
- relative viability (COR-L 105; first compound 0.003162 µM): 0.475
- relative viability (COR-L 105; first compound 0.01 µM): 0.533
- relative viability (COR-L 105; first compound 0.03162 µM): 0.396
- relative viability (COR-L 105; first compound 0.1 µM): 0.443
- relative viability (NCI-H2087; first compound 0.001 µM): 0.189
- relative viability (NCI-H2087; first compound 0.003162 µM): 0.322
- relative viability (NCI-H2087; first compound 0.01 µM): 0.153
- relative viability (NCI-H2087; first compound 0.03162 µM): 0.143
- relative viability (NCI-H2087; first compound 0.1 µM): 0.126
- relative viability (ChaGo-K-1; first compound 0.001 µM): 0.824
- relative viability (ChaGo-K-1; first compound 0.003162 µM): 1.15
- relative viability (ChaGo-K-1; first compound 0.01 µM): 1.03
- relative viability (ChaGo-K-1; first compound 0.03162 µM): 0.804
- relative viability (ChaGo-K-1; first compound 0.1 µM): 0.869
- relative viability (NCI-H2009; first compound 0.001 µM): 0.232
- relative viability (NCI-H2009; first compound 0.003162 µM): 0.203
- relative viability (NCI-H2009; first compound 0.01 µM): 0.278
- relative viability (NCI-H2009; first compound 0.03162 µM): 0.2
- relative viability (NCI-H2009; first compound 0.1 µM): 0.197
- relative viability (NCI-H1993; first compound 0.001 µM): 0.47
- relative viability (NCI-H1993; first compound 0.003162 µM): 0.522
- relative viability (NCI-H1993; first compound 0.01 µM): 0.477
- relative viability (NCI-H1993; first compound 0.03162 µM): 0.507
- relative viability (NCI-H1993; first compound 0.1 µM): 0.494
- relative viability (SK-MES-1; first compound 0.001 µM): 0.581
- relative viability (SK-MES-1; first compound 0.003162 µM): 0.482
- relative viability (SK-MES-1; first compound 0.01 µM): 0.492
- relative viability (SK-MES-1; first compound 0.03162 µM): 0.437
- relative viability (SK-MES-1; first compound 0.1 µM): 0.339
- relative viability (NCI-H441; first compound 0.001 µM): 0.437
- relative viability (NCI-H441; first compound 0.003162 µM): 0.569
- relative viability (NCI-H441; first compound 0.01 µM): 0.468
- relative viability (NCI-H441; first compound 0.03162 µM): 0.299
- relative viability (NCI-H441; first compound 0.1 µM): 0.37
- relative viability (NCI-H1975; first compound 0.001 µM): 0.338
- relative viability (NCI-H1975; first compound 0.003162 µM): 0.338
- relative viability (NCI-H1975; first compound 0.01 µM): 0.308
- relative viability (NCI-H1975; first compound 0.03162 µM): 0.241
- relative viability (NCI-H1975; first compound 0.1 µM): 0.234
- relative viability (NCI-H1792; first compound 0.001 µM): 0.365
- relative viability (NCI-H1792; first compound 0.003162 µM): 0.491
- relative viability (NCI-H1792; first compound 0.01 µM): 0.446
- relative viability (NCI-H1792; first compound 0.03162 µM): 0.077
- relative viability (NCI-H1792; first compound 0.1 µM): 0.162
- relative viability (H3255; first compound 0.001 µM): 0.617
- relative viability (H3255; first compound 0.003162 µM): 0.582
- relative viability (H3255; first compound 0.03162 µM): 0.53
- relative viability (H3255; first compound 0.1 µM): 0.947
- relative viability (NCI-H2085; first compound 0.001 µM): 0.483
- relative viability (NCI-H2085; first compound 0.003162 µM): 0.584
- relative viability (NCI-H2085; first compound 0.01 µM): 0.469
- relative viability (NCI-H2085; first compound 0.03162 µM): 0.456
- relative viability (NCI-H2085; first compound 0.1 µM): 0.54
- relative viability (CAL-12T; first compound 0.001 µM): 0.289
- relative viability (CAL-12T; first compound 0.003162 µM): 0.34
- relative viability (CAL-12T; first compound 0.01 µM): 0.261
- relative viability (CAL-12T; first compound 0.03162 µM): 0.283
- relative viability (CAL-12T; first compound 0.1 µM): 0.249
- relative viability (HCC-366; first compound 0.001 µM): 0.35
- relative viability (HCC-366; first compound 0.003162 µM): 0.361
- relative viability (HCC-366; first compound 0.01 µM): 0.327
- relative viability (HCC-366; first compound 0.03162 µM): 0.243
- relative viability (HCC-366; first compound 0.1 µM): 0.145
- relative viability (EKVX; first compound 0.001 µM): 0.336
- relative viability (EKVX; first compound 0.003162 µM): 0.351
- relative viability (EKVX; first compound 0.01 µM): 0.352
- relative viability (EKVX; first compound 0.03162 µM): 0.355
- relative viability (EKVX; first compound 0.1 µM): 0.734
- relative viability (NCI-H1355; first compound 0.001 µM): 0.378
- relative viability (NCI-H1355; first compound 0.003162 µM): 0.469
- relative viability (NCI-H1355; first compound 0.01 µM): 0.44
- relative viability (NCI-H1355; first compound 0.03162 µM): 0.356
- relative viability (NCI-H1355; first compound 0.1 µM): 0.307
- relative viability (HCC-827; first compound 0.001 µM): 0.593
- relative viability (HCC-827; first compound 0.003162 µM): 0.523
- relative viability (HCC-827; first compound 0.03162 µM): 0.542
- relative viability (HCC-827; first compound 0.1 µM): 0.469
